Where two headings read alike, the source gives them in different places.
Tested on: Staphylococcus aureus (ATCC 6538)
Assay: Antimicrobial efficacy (stand-alone log reduction), S. aureus
Type: cell-based
Settings: for log reduction at 4 ppm / log reduction at 1 ppm / log reduction at 2 ppm / log reduction at 3 ppm / log reduction at 5 ppm / log reduction at 4 µg/mL: Staphylococcus aureus; for log reduction at 4 µg/mL: 4.0 ppm alexidine in ReNu MPS
Procedure: This Example illustrates the microbiocidal efficacy of solutions according to the present invention. The antimicrobial efficacy of each of various compositions for the chemical disinfection of contact lenses was evaluated. Microbial challenge inoculums were prepared using Pseudomonas aeruginosa (ATCC 9027), Staphylococcus aureus (ATCC 6538), Serratia marcescens (ATCC 13880), Candida albicans (ATCC 10231), and Fusarium solani (ATCC 36031). The test organisms were cultured on appropriate agar and the cultures were harvested using sterile DPBST (Dulbecco's Phosphate Buffered Saline plus 0.05% w/v polysorbate 80) or a suitable diluent and transferred to a suitable vessel. Spore suspensions were filtered through sterile glass wool to remove hyphal fragments. Serratia marcescens, as appropriate, was filtered (eg., through a 1.2 μ filter) to clarify the suspension. After harvesting, the suspension was centrifuged at no more than 5000× g for a maximum of 30 minutes at 20-25° C. The supernatant was poured off and resuspended in DPBST or other suitable diluent. The suspension was centrifuged a second time, and resuspended in DPBST or other suitable diluent. All challenge bacterial and fungal cell suspensions were adjusted with DPBST or other suitable diluent to 1×10^7 -10^8 cfu/mL. The appropriate cell concentration may be estimated by measuring the turbidity of the suspension, for example using a spectrophotometer at a preselected wavelength, for example 490 nm. One tube was prepared containing a minimum of 10 mL of test solution per challenge organism. Each tube of the solution to be tested was inoculated with a suspension of the test organism sufficient to provide a final count of 1.0×10^5 -10^6 cfu/mL, the volume of the inoculum not exceeding 1% of the sample volume. Dispersion of the inoculum was ensured by vortexing the sample for at least 15 seconds. The inoculated product was stored at 10-25° C. Aliquots in the amount of 1.0 mL were taken of the inoculated product for determination of viable counts after certain time periods of disinfection. The time points for the bacteria were 25, 50, 75, and 100% of the minimum disinfection time. Yeast and mold were tested at an additional timepoint of at least 400% of the minimum disinfection time. The suspension was mixed well by vortexing vigorously for at least 5 second. The 1.0 mL aliquots removed at the specified time intervals were subjected to a suitable series of decimal dilutions in validated neutralizing media. The suspensions were mixed vigorously and incubated for a suitable period of time to allow for neutralization of the microbial agent. The viable count of organisms was determined in appropriate dilutions by preparation of triplicate plates of trypticase soy (TSA) agar for bacteria and Sabouraud dextrose agar (SDA) for mold and yeast. The bacterial recovery plates were incubated at 30-35° C. for 2-4 days. The yeast was incubated at 20-30° C. for 2-4 days and mold recovery plates at 20-25° C. for 3-7 days. The average number of colony forming units was determined on countable plates. Countable plates refer to 30-300 cfu/plates for bacteria and yeast, and 8 to 80 cfu/plate for mold except when colonies are observed only for the 10^0 or 10^-1 dilution plates. The microbial reduction was then calculated at the specified time points. […] Following inoculation in a validated neutralizing broth and incubation for an appropriate period of time, the inoculum control must be between 1.0×10^5 -1.0×10^6 cfu/mL
The solutions were evaluated based on the performance requirement referred to as the "Stand-Alone Procedure for Disinfecting Products" (hereafter the "stand-alone test") and is based on the Disinfection Efficacy Testing for contact lens care products under the Draft Premarket Notification (510(k)) Guidance Document For Contact Lens Care Products dated Apr. 1, 1996, prepared by the U.S. Food and Drug Administration, Division of Ophthalmic Devices. […]

SMILES: CCCCC(CC)CNC(=N)NC(=N)NCCCCCCNC(=N)NC(=N)NCC(CC)CCCC.Cl.Cl (centres unmarked) [Alexidine.2HCl, 1,1 '-hexamethylenebis(5-(2-ethylhexyl)-biguanide) dihydrochloride]
- stand-alone test, 15 minute time point (4.0 ppm, Example 6, 15 min): the 15 minute time point failed
- log reduction at 4 ppm (ATCC6538, 2.5 min): 2
- log reduction at 4 ppm (ATCC6538, 2.5 min, 4.0 ppm, aged 18 months, Exp. 1, 2.5 min, read-out: Log Reduction): 2.2
- log reduction at 4 ppm (ATCC6538, 2.5 min, 4.0 ppm, aged 18 months, Exp. 2, 2.5 min, read-out: Log Reduction): 1.6
- log reduction at 1 ppm (ATCC6538, 5 min, 1.0 ppm, read-out: Log Reduction at 5 Minutes): 0.7
- log reduction at 2 ppm (ATCC6538, 5 min, 2.0 ppm, read-out: Log Reduction at 5 Minutes): 1.6
- log reduction at 3 ppm (ATCC6538, 5 min, 3.0 ppm, read-out: Log Reduction at 5 Minutes): 2.6
- log reduction at 4 ppm (ATCC6538, 5 min, 4.0 ppm, aged 18 months, Exp. 1, 5.0 min, read-out: Log Reduction): 2.7
- log reduction at 4 ppm (ATCC6538, 5 min, 4.0 ppm, aged 18 months, Exp. 2, 5.0 min, read-out: Log Reduction): 2
- log reduction at 4 ppm (ATCC6538, 5 min, 4.0 ppm, aged 18 months, Exp. 3, 5.0 min, read-out: Log Reduction): 2.8
- log reduction at 4 ppm (ATCC6538, 5 min, 4.0 ppm, read-out: Log Reduction at 5 Minutes): 4.8
- log reduction at 5 ppm (ATCC6538, 5 min, 5.0 ppm, read-out: Log Reduction at 5 Minutes): 4.8
- log reduction at 4 ppm (ATCC6538, 0.125 h): 2.3
- log reduction at 4 ppm (ATCC6538, 0.125 h, 4.0 ppm, aged 18 months, Exp. 1, 7.5 min, read-out: Log Reduction): 3.1
- log reduction at 4 ppm (ATCC6538, 0.125 h, 4.0 ppm, aged 18 months, Exp. 3, 7.5 min, read-out: Log Reduction): 3.4
- log reduction at 1 ppm (ATCC6538, 10 min, 1.0 ppm, read-out: Log Reduction at 10 Minutes): 1
- log reduction at 2 ppm (ATCC6538, 10 min, 2.0 ppm, read-out: Log Reduction at 10 Minutes): 2.6
- log reduction at 3 ppm (ATCC6538, 10 min, 3.0 ppm, read-out: Log Reduction at 10 Minutes): 4
- log reduction at 4 ppm (ATCC6538, 10 min, 4.0 ppm, aged 18 months, Exp. 1, 10.0 min, read-out: Log Reduction): 3.5
- log reduction at 4 ppm (ATCC6538, 10 min, 4.0 ppm, aged 18 months, Exp. 2, 10.0 min, read-out: Log Reduction): 2.7
- log reduction at 4 ppm (ATCC6538, 10 min, 4.0 ppm, aged 18 months, Exp. 3, 10.0 min, read-out: Log Reduction): 3.9
- log reduction at 4 ppm (ATCC6538, 10 min, 4.0 ppm, read-out: Log Reduction at 10 Minutes): 4.8
- log reduction at 5 ppm (ATCC6538, 10 min, 5.0 ppm, read-out: Log Reduction at 10 Minutes): > 4.8
- log reduction at 4 ppm (ATCC6538, 0.25 h, 4.0 ppm, Ex. 6, aged 19 months at 25 °C, 15 min, read-out: Log Reduction): 2.5
- log reduction at 4 ppm (ATCC6538, 0.25 h, 4.0 ppm, Ex. 7, different lot aged 18 months, 15 min, read-out: Log Reduction): 3.7
- log reduction at 4 ppm (ATCC6538, 0.25 h, 4.0 ppm, Ex. 8, different batch aged 19 months at 25 °C, 15 min, read-out: Log Reduction): 3.5
- log reduction at 4 ppm (ATCC6538, 0.5 h, 4.0 ppm, Ex. 6, aged 19 months at 25 °C, 30 min, read-out: Log Reduction): 4.4
- log reduction at 4 ppm (ATCC6538, 0.5 h, 4.0 ppm, Ex. 7, different lot aged 18 months, 30 min, read-out: Log Reduction): 4.7
- log reduction at 4 ppm (ATCC6538, 0.5 h, 4.0 ppm, Ex. 8, different batch aged 19 months at 25 °C, 30 min, read-out: Log Reduction): > 4.9
- log reduction at 4 ppm (ATCC6538, 0.75 h, 4.0 ppm, Ex. 6, aged 19 months at 25 °C, 45 min, read-out: Log Reduction): > 4.9
- log reduction at 4 ppm (ATCC6538, 0.75 h, 4.0 ppm, Ex. 7, different lot aged 18 months, 45 min, read-out: Log Reduction): > 4.8
- log reduction at 4 ppm (ATCC6538, 0.75 h, 4.0 ppm, Ex. 8, different batch aged 19 months at 25 °C, 45 min, read-out: Log Reduction): > 4.9
- log reduction at 1 ppm (ATCC6538, 1 h, 1 ppm, 1 hr, read-out: Log Reduction): 1.6
- log reduction at 2 ppm (ATCC6538, 1 h, 2 ppm, 1 hr, read-out: Log Reduction): 4.3
- log reduction at 3 ppm (ATCC6538, 1 h, 3 ppm, 1 hr, read-out: Log Reduction): > 4.8
- log reduction at 4 µg/mL (ATCC6538, 1 h, 1 hr): > 4.9
- log reduction at 4 ppm (ATCC6538, 1 h, 4 ppm, 1 hr, read-out: Log Reduction): > 4.8
- log reduction at 4 ppm (ATCC6538, 1 h, 4.0 ppm, Ex. 6, aged 19 months at 25 °C, 60 min, read-out: Log Reduction): > 4.9
- log reduction at 4 ppm (ATCC6538, 1 h, 4.0 ppm, Ex. 7, different lot aged 18 months, 60 min, read-out: Log Reduction): > 4.8
- log reduction at 4 ppm (ATCC6538, 1 h, 4.0 ppm, Ex. 8, different batch aged 19 months at 25 °C, 60 min, read-out: Log Reduction): > 4.9
- log reduction at 5 ppm (ATCC6538, 1 h, 5 ppm, 1 hr, read-out: Log Reduction): > 4.8
- log reduction at 4 µg/mL (ATCC6538, 2 h, 2 hr): > 4.9
- log reduction at 4 µg/mL (ATCC6538, 3 h, 3 hr): > 4.9
- log reduction at 4 µg/mL (ATCC6538, 4 h, 4 hr): > 4.9

— US5965088A, “Method for providing rapid disinfection of contact lenses” (priority 1997, dated 1999)
